“And” between values parts separate entries of the source, which are not always exact repeats. Equal values may be shown once.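 Grown in 96-well plates, cells were treated for 48 hours with each compound at five concentrations. Insufficient inhibition: endpoint recorded as highest concentration tested. The concentration for 50% growth inhibition is given as GI50. Definition used: TGI = concentration required for complete inhibition of growth.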 Where a SMILES comes first, the peptide text is derived from it. [ ]: non-standard residue; d: D form. The star is where a group is joined. Phe(4-NO2) = N[CH](Cc1ccc([N+](=O)[O-])cc1)C(=O)O; Boc = CC(C)(C)OC(=O)*
Tests used:
Assay in all cases: NCI-60 cell line screen, 48 h
SK-MEL-2 melanoma = tested on: SK-MEL-2 melanoma
NCI/ADR-RES ovarian = tested on: NCI/ADR-RES ovarian
SF-539 CNS = tested on: SF-539 CNS
HT29 colon = tested on: HT29 colon
UO-31 renal = tested on: UO-31 renal
786-0 renal = tested on: 786-0 renal
TK-10 renal = tested on: TK-10 renal
SK-MEL-28 melanoma = tested on: SK-MEL-28 melanoma
SF-295 CNS = tested on: SF-295 CNS
HOP-92 NSCLC = tested on: HOP-92 NSCLC

CC(=O)OCC1OC(SC2=NC(=O)CS2)C(OC(C)=O)C(OC(C)=O)C1OC(C)=O (centres undefined)
GI50 (SK-MEL-2 melanoma): > 100 µM and 27.1 µM
TGI (SK-MEL-2 melanoma): > 100 µM
TGI (NCI/ADR-RES ovarian): > 100 µM
TGI (SF-539 CNS): > 100 µM
TGI (HT29 colon): > 100 µM
TGI (UO-31 renal): > 100 µM
TGI (786-0 renal): > 100 µM
TGI (TK-10 renal): > 100 µM
TGI (SK-MEL-28 melanoma): > 100 µM
TGI (SF-295 CNS): > 100 µM

CCC1=C(C[C@H]2NCCc3cc(OC)c(OC)cc32)C[C@H]2c3cc(OC)c(OC)cc3CCN2C1
TGI (SK-MEL-2 melanoma): 0.0713 µM
TGI (SF-539 CNS): 0.148 µM
TGI (HT29 colon): 0.182 µM
TGI (HOP-92 NSCLC): 0.095 µM
TGI (UO-31 renal): 0.923 µM
TGI (786-0 renal): 0.107 µM
TGI (SK-MEL-28 melanoma): 0.192 µM
TGI (SF-295 CNS): 0.189 µM

COc1cc2nc(N3CCC[C@H](NC4=CC(=O)c5ccccc5C4=O)C3)nc(N)c2cc1OC
GI50 (NCI/ADR-RES ovarian): 2.34 µM
TGI (NCI/ADR-RES ovarian): 5.44 µM
GI50 (SF-539 CNS): 1.94 µM
TGI (SF-539 CNS): 3.77 µM
GI50 (HT29 colon): 2.02 µM
TGI (HT29 colon): 4.07 µM
GI50 (UO-31 renal): 1.49 µM
TGI (UO-31 renal): 3.16 µM
GI50 (TK-10 renal): 2.41 µM
TGI (TK-10 renal): 4.12 µM
GI50 (SK-MEL-28 melanoma): 1.97 µM
TGI (SK-MEL-28 melanoma): 3.67 µM
GI50 (SF-295 CNS): 1.96 µM
TGI (SF-295 CNS): 4.06 µM

CC(=O)CC(=O)N1CCSC1=S
TGI (SK-MEL-2 melanoma): > 10 µM
TGI (SF-539 CNS): > 10 µM
TGI (HT29 colon): > 10 µM
TGI (HOP-92 NSCLC): > 10 µM
TGI (UO-31 renal): > 10 µM
TGI (786-0 renal): > 10 µM
TGI (TK-10 renal): > 10 µM
TGI (SK-MEL-28 melanoma): > 10 µM
TGI (SF-295 CNS): > 10 µM

COC(=O)c1onc(C2OC(C)(C)OC2C(O)COC(c2ccccc2)(c2ccccc2)c2ccccc2)c1C(=O)OC (centres undefined)
TGI (SK-MEL-2 melanoma): > 100 µM
TGI (SF-539 CNS): > 100 µM
TGI (HT29 colon): > 100 µM
TGI (HOP-92 NSCLC): > 100 µM
TGI (UO-31 renal): > 100 µM
TGI (786-0 renal): > 100 µM
TGI (TK-10 renal): > 100 µM
TGI (SK-MEL-28 melanoma): > 100 µM

Cc1cc(S(=O)(=O)Nc2nc3cscc3c(=O)n2N)c(S)cc1Cl
TGI (SK-MEL-2 melanoma): > 100 µM
TGI (NCI/ADR-RES ovarian): 73.4 µM
TGI (SF-539 CNS): > 100 µM
TGI (HT29 colon): > 100 µM
TGI (786-0 renal): > 100 µM
TGI (TK-10 renal): > 100 µM
TGI (SK-MEL-28 melanoma): > 100 µM
TGI (SF-295 CNS): > 100 µM

c1ccc2c[n+](CCCC[n+]3ccc4ccccc4c3)ccc2c1
TGI (SK-MEL-2 melanoma): > 100 µM
TGI (NCI/ADR-RES ovarian): > 100 µM
TGI (SF-539 CNS): > 100 µM
TGI (HT29 colon): > 100 µM
TGI (786-0 renal): > 100 µM
TGI (TK-10 renal): > 100 µM
TGI (SK-MEL-28 melanoma): > 100 µM
TGI (SF-295 CNS): > 100 µM

CCOC(=O)CCC(NC(=O)C(Cc1ccc([N+](=O)[O-])cc1)NC(=O)OC(C)(C)C)C(=O)NC(CCC(=O)OCC)C(=O)OCC (centres undefined) (Boc-[Phe(4-NO2)]-Glu(OEt)-Glu(OEt)-OEt; configuration not given here)
TGI (SK-MEL-2 melanoma): 25.9 µM
TGI (HT29 colon): 31.5 µM
TGI (HOP-92 NSCLC): 34.7 µM
TGI (UO-31 renal): > 100 µM
TGI (786-0 renal): 30.5 µM
TGI (TK-10 renal): 30.1 µM
TGI (SK-MEL-28 melanoma): 32.1 µM

CCOC(=O)CCc1cn2cc(Br)nc(OC)c2n1
TGI (SK-MEL-2 melanoma): > 100 µM
TGI (NCI/ADR-RES ovarian): > 100 µM
TGI (SF-539 CNS): > 100 µM
TGI (HT29 colon): > 100 µM
TGI (UO-31 renal): 58.5 µM
TGI (786-0 renal): > 100 µM
TGI (TK-10 renal): > 100 µM
TGI (SK-MEL-28 melanoma): > 100 µM
TGI (SF-295 CNS): > 100 µM

O=c1c2ccccc2nc(N/N=C/c2ccc([N+](=O)[O-])cc2)n1-c1ccccc1
TGI (NCI/ADR-RES ovarian): > 100 µM
TGI (HT29 colon): > 100 µM
TGI (UO-31 renal): > 100 µM
TGI (786-0 renal): 20.1 µM
TGI (TK-10 renal): 56.3 µM
TGI (SK-MEL-28 melanoma): 30.1 µM
TGI (SF-295 CNS): 62.2 µM

Cc1cc2nc3ccccc3n2c2ccccc12
TGI (SK-MEL-2 melanoma): > 10 µM
TGI (NCI/ADR-RES ovarian): > 10 µM
TGI (SF-539 CNS): > 10 µM
TGI (HT29 colon): > 10 µM
TGI (786-0 renal): > 10 µM
TGI (TK-10 renal): > 10 µM
TGI (SK-MEL-28 melanoma): > 10 µM
TGI (SF-295 CNS): > 10 µM

O=C1CCCCC/C1=C\c1cccc(F)c1
TGI (SK-MEL-2 melanoma): > 100 µM
TGI (NCI/ADR-RES ovarian): > 100 µM
TGI (SF-539 CNS): > 100 µM
TGI (HT29 colon): > 100 µM
TGI (UO-31 renal): > 100 µM
TGI (786-0 renal): > 100 µM
TGI (TK-10 renal): > 100 µM
TGI (SK-MEL-28 melanoma): > 100 µM
TGI (SF-295 CNS): > 100 µM

N/N=C(/N)SCCCCCCCCCCS/C(N)=N/N
TGI (SK-MEL-2 melanoma): 52.8 µM
TGI (NCI/ADR-RES ovarian): 58.2 µM
TGI (SF-539 CNS): > 100 µM
TGI (HT29 colon): 27.7 µM
TGI (UO-31 renal): 78.9 µM
TGI (786-0 renal): > 100 µM
TGI (TK-10 renal): > 100 µM
TGI (SK-MEL-28 melanoma): > 100 µM
TGI (SF-295 CNS): 60.9 µM

O=C1c2ccncc2C(=O)c2c(O)ccc(O)c21
TGI (SF-539 CNS): 13.4 µM
TGI (HT29 colon): 7.74 µM
TGI (HOP-92 NSCLC): 32.4 µM
TGI (UO-31 renal): 29.7 µM
TGI (786-0 renal): 19.2 µM
TGI (TK-10 renal): 42.3 µM
TGI (SK-MEL-28 melanoma): 26.7 µM
TGI (SF-295 CNS): 25.1 µM

Cc1cc2c(=O)c3ccc(Cl)cc3[nH]c2c(C(N)=O)c1C
TGI (SK-MEL-2 melanoma): > 100 µM
TGI (SF-539 CNS): > 100 µM
TGI (HT29 colon): > 100 µM
TGI (HOP-92 NSCLC): > 100 µM
TGI (UO-31 renal): > 100 µM
TGI (786-0 renal): > 100 µM
TGI (TK-10 renal): > 100 µM
TGI (SK-MEL-28 melanoma): > 100 µM
TGI (SF-295 CNS): > 100 µM

COC(=O)C(Cc1c[nH]c2ccccc12)NC(=O)C(Cc1c[nH]c2ccccc12)NC(=O)C(Cc1c[nH]c2ccccc12)NC(=O)C(Cc1c[nH]c2ccccc12)NC(=O)C(Cc1c[nH]c2ccccc12)NC(=O)C(Cc1c[nH]c2ccccc12)NC(=O)C(Cc1c[nH]c2ccccc12)NC(=O)OC(C)(C)C (centres undefined) (Boc-WWWWWWW-OMe; configuration not given here)
TGI (SK-MEL-2 melanoma): 87.9 µM
TGI (HT29 colon): > 100 µM
TGI (UO-31 renal): > 100 µM
TGI (786-0 renal): > 100 µM
TGI (TK-10 renal): > 100 µM
TGI (SK-MEL-28 melanoma): > 100 µM

Cc1cc(=O)[nH]c(NNC(C#N)c2ccccc2O)n1 (centres undefined)
TGI (SK-MEL-2 melanoma): > 100 µM
TGI (SF-539 CNS): > 100 µM
TGI (HT29 colon): > 100 µM
TGI (HOP-92 NSCLC): > 100 µM
TGI (UO-31 renal): 56.8 µM
TGI (786-0 renal): > 100 µM
TGI (TK-10 renal): > 100 µM
TGI (SK-MEL-28 melanoma): > 100 µM
TGI (SF-295 CNS): > 100 µM

CC(c1ccccc1)n1cncc1C(=O)NN1CCN(C)CC1 (centres undefined)
TGI (SK-MEL-2 melanoma): > 10 µM
TGI (NCI/ADR-RES ovarian): > 10 µM
TGI (SF-539 CNS): > 10 µM
TGI (HT29 colon): > 10 µM
TGI (786-0 renal): > 10 µM
TGI (TK-10 renal): > 10 µM
TGI (SK-MEL-28 melanoma): > 10 µM
TGI (SF-295 CNS): > 10 µM

From PubChem BioAssay (NCI)
